Measurements reported in patent US20260240797A1, “TREATMENT OF ULCERATIVE COLITIS COMPRISING VIDOFLUDIMUS OR A PHARMACEUTICALLY ACCEPTABLE SALT THEREOF” (IMMUNIC AG, priority 2022, published 2026).
Structures can show the parent of a compound that is named as a salt.

Tests used:
[1] = test system: patients with moderate-to-severe ulcerative colitis; test: CALDOSE-1 phase 2 trial (NCT03341962), induction phase efficacy; type: in vivo, human; conditions: for Odds Ratio Estimate to achieve clinical remission versus placebo: active treatment groups of 30/45 mg, multivariate logistical regression
[2] = test system: patients with moderate-to-severe ulcerative colitis; test: CALDOSE-1 phase 2 trial, maintenance phase efficacy (Week 50); type: in vivo, human; conditions: for Clinical Remission Rate at Week 50 (steroid-free): Modified Full Analysis Set MP; for Number of Patients with Clinical Remission at Week 50 (steroid-free): Modified Full Analysis Set MP (corticosteroids during induction)
[3] = test system: patients with moderate-to-severe ulcerative colitis; test: CALDOSE-1 phase 2 trial, safety and tolerability; type: in vivo, human; conditions: for Incidence of TEAEs of Special Interest: red blood cells urine positive, hematuria or retroperitoneal pain
[4] = test system: patients with relapsing remitting MS (rrMS); conditions: cited from earlier work
[5] = in vivo; cited from earlier work
human DHODH = human DHODH (Homo sapiens, UniProt Q02127); conditions: cited from earlier work
[6] = test system: T-lymphocyte proliferation; conditions: in vitro; cited from earlier work
[7] = test system: secretion of IL-17 and IFNγ; conditions: in vitro; cited from earlier work
patients with CD = conditions: 12 weeks, cited from earlier work
patients with UC = conditions: 12 weeks, cited from earlier work
[8] = test system: patients with inflammatory bowel disease (IBD); conditions: 35 mg oral once daily, 12 weeks; cited from earlier work
[9] = test system: patients with active rheumatoid arthritis; conditions: 35 mg once-daily for 13 weeks; cited from earlier work

Chain of human DHODH (Q02127 whole entry): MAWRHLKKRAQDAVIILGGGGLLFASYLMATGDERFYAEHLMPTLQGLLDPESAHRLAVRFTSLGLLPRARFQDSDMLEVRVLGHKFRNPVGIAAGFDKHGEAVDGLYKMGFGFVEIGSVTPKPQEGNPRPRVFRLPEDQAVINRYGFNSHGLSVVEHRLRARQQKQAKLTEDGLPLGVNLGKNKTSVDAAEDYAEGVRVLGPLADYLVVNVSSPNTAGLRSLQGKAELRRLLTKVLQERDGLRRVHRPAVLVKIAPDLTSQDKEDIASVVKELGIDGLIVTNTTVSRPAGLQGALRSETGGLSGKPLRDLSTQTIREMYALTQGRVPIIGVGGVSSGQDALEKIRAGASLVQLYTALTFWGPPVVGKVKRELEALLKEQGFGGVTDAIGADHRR

COc1cccc(-c2ccc(NC(=O)C3=C(C(=O)O)CCC3)c(F)c2)c1 [IMU-838, 1-cyclopentene-1-carboxylic acid, 2-(((3-fluoro-3′-methoxy(1,1′-biphenyl)-4-yl)amino)carbonyl)-, calcium salt (2:1)]
clinical remission at week 10 ([1]; 10 mg/day, overall intent-to-treat patient population): 14.9%
clinical remission at week 10 ([1]; 30 mg/day, overall intent-to-treat patient population): 10.6%
clinical remission at week 10 ([1]; 45 mg/day, overall intent-to-treat patient population): 13.6%
Odds Ratio Estimate to achieve clinical remission versus placebo ([1]; with concomitant steroids): 0.58
Odds Ratio Estimate to achieve clinical remission versus placebo ([1]; without concomitant steroids): 3.53
rate of clinical remission at week 10 ([1]; patients concomitantly taking corticosteroids during induction treatment): 11.5%
clinical remission (primary endpoint) at Week 10 ([1]; pooled 30 and 45 mg, Full Analysis Set, n=16 missing data): 13.8%
patients with clinical remission (primary endpoint) at Week 10 ([1]; pooled 30 and 45 mg, Full Analysis Set, of 116 evaluated): 16
advantage in clinical remission over placebo ([1]; pooled treatment groups at week 10, non-steroid patient population): 11.4%
clinical remission at week 10 ([1]; pooled treatment groups, non-steroid patient population (no concurrent corticosteroids)): 14.7%
Clinical Remission Rate at Week 50 (steroid-free) ([2]; 10 mg): 38.5%
Number of Patients with Clinical Remission at Week 50 (steroid-free) ([2]; 10 mg, N10 = 22): 5
Mean time to symptomatic UC relapse ([2]; 10 mg, N = 45): 231.7 days
Clinical Remission Rate at Week 50 ([2]; 10 mg, n = 26/35): 42.3%
Number of Patients with Clinical Remission at Week 50 ([2]; 10 mg, n = 26/35 evaluated/total): 11
Endoscopic Healing Rate at Week 50 ([2]; 10 mg, n = 28/35): 53.6%
Number of Patients Meeting Endpoint (Endoscopic Healing at Week 50) ([2]; 10 mg, n = 28/35): 15
delta (Δ) vs placebo in clinical remission at Week 50 ([2]; 30 mg, 95% CI 3.2%-59.3%): 33.8%
Clinical Remission Rate at Week 50 (steroid-free) ([2]; 30 mg): 66.7%
Number of Patients with Clinical Remission at Week 50 (steroid-free) ([2]; 30 mg, N30 = 22): 8
Mean time to symptomatic UC relapse ([2]; 30 mg, N = 40): 221.9 days
Clinical Remission Rate at Week 50 ([2]; 30 mg, n = 26/29): 61.5%
Endoscopic Healing Rate at Week 50 ([2]; 30 mg, n = 26/29): 73.1%
Number of Patients Meeting Endpoint (Endoscopic Healing at Week 50) ([2]; 30 mg, n = 26/29): 19
Number of Patients with Clinical Remission at Week 50 ([2]; 30 mg, n = 26/29 evaluated/total): 16
odds ratio (30 mg IMU-838/Placebo) for clinical remission at Week 50 ([2]; 30 mg, two-sided Pearson's chi-square p=0.0358): 4.16
safety and tolerability ([3]; induction phase, 10, 30, 45 mg/day): safe and well-tolerated
Incidence of Liver TEAEs ([3]; maintenance phase, 10 mg): 2.2%
Incidence of Renal TEAEs ([3]; maintenance phase, 10 mg): 2.2%
Incidence of Serious TEAEs ([3]; maintenance phase, 10 mg): 6.7%
Incidence of TEAEs ([3]; maintenance phase, 10 mg, N10 = 45): 35.6%
Incidence of TEAEs of Special Interest ([3]; maintenance phase, 10 mg): 0.0%
Incidence of Liver TEAEs ([3]; maintenance phase, 30 mg): 0.0
Incidence of Renal TEAEs ([3]; maintenance phase, 30 mg): 5%
Incidence of Serious TEAEs ([3]; maintenance phase, 30 mg): 5%
Incidence of TEAEs ([3]; maintenance phase, 30 mg, N30 = 40): 40%
Incidence of TEAEs of Special Interest ([3]; maintenance phase, 30 mg): 5%
safety and tolerability ([3]; maintenance phase, 10 and 30 mg): safe and well tolerated
safety profile ([4]; 30 mg and 45 mg doses): favorable safety profile
suppression of MRI activity ([4]; 30 mg dose, 24-weeks of treatment): 70%
half-life [5]: approximately 30 h
potency against human DHODH (human DHODH): submicromolar potency
T-lymphocyte proliferation [6]: inhibited
secretion of IL-17 and IFNγ [7]: inhibited

COc1cccc(-c2ccc(NC(=O)C3=C(C(=O)O)CCC3)c(F)c2)c1 [Vidofludimus, 2-((3-fluoro-3′-methoxy-[1,1′-biphenyl]-4-yl)carbamoyl)cyclopent-1-enecarboxylic acid]
number of partial responders (patients with CD; 35 mg oral once daily): 4
partial responders (patients with CD; 35 mg oral once daily): 29%
patients in steroid-free remission (complete responders) (patients with CD; 35 mg oral once daily): 57%
number of patients in steroid-free remission (complete responders) (patients with CD; out of 14, 35 mg oral once daily): 8
number of partial responders (patients with UC; 35 mg oral once daily): 5
partial responders (patients with UC; 35 mg oral once daily): 42%
patients in steroid-free remission (complete responders) (patients with UC; 35 mg oral once daily): 50%
number of patients in steroid-free remission (complete responders) (patients with UC; out of 12, 35 mg oral once daily): 6
tolerability / drug-related serious adverse events [8]: well tolerated and no drug-related serious adverse events were observed
diarrhoea, alopecia, neutropenia or liver enzyme elevations [9]: no notable increases
safety profile compared to placebo [9]: overall similar safety profile as compared to placebo
